Measured values published in the NIST ThermoML archive (doi:10.1021/acs.jced.8b00135).
Numbers after ± are expanded uncertainties.

How the values were obtained:
[1] = 96.5 kPa, Liquid, Capillary tube (Ostwald / Ubbelohde) method
[2] = refractive index (Na D-line) (dimensionless); conditions: 96.5 kPa, Liquid, Standard Abbe refractometry

Cc1ccccc1O [2-methylphenol]
Conditions | refractive index, 288.15 K | refractive index, 293.15 K | refractive index, 298.15 K | refractive index, 303.15 K | refractive index, 308.15 K | viscosity, 288.15 K [mPa·s] | viscosity, 293.15 K [mPa·s] | viscosity, 298.15 K [mPa·s] | viscosity, 303.15 K [mPa·s] | viscosity, 308.15 K [mPa·s]
[1] | – | – | – | – | – | 13.28 ± 0.31 | 9.68 ± 0.23 | 7.76 ± 0.17 | 6.575 ± 0.15 | 5.566 ± 0.12
[2] | 1.5407 ± 0.008 | 1.5392 ± 0.008 | 1.5382 ± 0.008 | 1.5362 ± 0.008 | 1.5336 ± 0.008 | – | – | – | – | –
